{"source": "patent US20130005573A1", "about": "“COMPOSITIONS AND METHODS OF USE FOR KETONES AND ALDEHYDES AS HERBICIDES” (North Carolina State University, priority 2010, published 2013)", "key": {"Tomato seedlings": {"system": "Tomato seedlings", "assay": "Greenhouse fine mist foliar spray on tomato seedlings", "format": "in vivo", "procedure": "(§1) This experiment was conducted in a greenhouse setting. Tomato seedlings in 4 to 6 true-leaf stage and 3-5 inch tall potato plants were treated with a fine mist spray comprising a solution of >2% 2-undecanone in 95% ethanol."}, "potato plants": {"system": "potato plants", "assay": "Greenhouse fine mist foliar spray on potato plants", "format": "in vivo", "conditions": ">2% in 95% ethanol", "procedure": "as §1"}, "bean plants": {"system": "bean plants", "assay": "Herbicidal spray treatment on bean plants", "format": "in vivo", "conditions": "20% solution (wt/vol) in absolute ethanol, sprayed to run off", "procedure": "Experiment 3 exemplifies the herbicidal activity of 2-undecanone on bean plants. The bean plant on the left in FIG. 3 was treated with a 20% solution (wt/vol) of 2-undecanone in a carrier comprising absolute ethanol. The bean plant on the right was treated with the absolute ethanol carrier only. Treatments were made by spraying each plant until “run off” levels were achieved. […] In contrast, the plant on the right (ethanol control) never differed in appearance from the no-spray controls (not shown). […] All treatments of the bean plants described above were performed in North Carolina during the summer months under a shelter; the bean plants were protected from the elements but were watered regularly. The plants also received direct sunlight for about 8 hours from approximately noon until sunset."}, "wild-type grass": {"system": "wild-type grass", "assay": "Spray treatment of test plots of wild-type grass", "format": "in vivo, grass (monocotyledon)", "procedure": "Two experiments were initiated that tested the activity of an acyclic ketone on a common monocotyledon. The test plots comprised similar areas of wild-type grass. The area of each test plot of grass was defined to be the area within a square measuring approximately 15 inches on a side. The experiments were conducted using two different formulations of the same test material: the formulation tested in Experiment 6 comprised a 5% (wt/vol) mixture of undecanone in absolute ethanol; the formulation tested in Experiment 7 comprised a 5% (wt/vol) mixture of undecanone in water.\nA measured amount of each formulation was sprayed onto its appropriate test area using a hand held spray bottle; the spray bottle produced a fine mist in each case. […] The details of each experiment are provided separately below.\nIn Experiment 6, 40 ml of a 5% formulation of the test material in ethanol (wt/vol) was evenly sprayed on one of two adjacent test plots of grass. This treated plot was located on the right side of the test plot pair. The adjacent test plot (left; control plot) was sprayed in an identical fashion with a spray bottle containing 40 mL of the ethanol carrier as a control; the time difference for completing the spraying of the two grassy test plots was less than 2 minutes. The effects of the spray formulations on the test plots were noted over time and images were captured at several time points for later comparisons (see FIGS. 5A, 5B and 5C for images). FIGS. 5A, 5B and 5C are images showing the effects of spraying a 5% formulation of the test material in ethanol and ethanol control on test plots of grass in accordance with embodiments of the present disclosure.\nVisible differences were observed within a 30 minute period following the spray applications of control and test compound formulations comprising ethanol. […] The appearance of the plots at the one-hour time point are shown in the FIG. 5B image, and the appearance of the plots at the twenty four-hour time point are shown in the FIG. 5C image.\nThe conditions and amounts of materials used in Experiment 7 were similar to those employed in Experiment 6, with the exception that both the formulation comprising the active ingredient and the solution of carrier comprised water in the place of ethanol. In Experiment 7, the early toxicity effects were delayed compared to the early toxicity effects noted in Experiment 6. […] The appearance of the areas treated with the formulation comprising water were photographed at the 24 hour time point and can be seen in the image of FIG. 6B."}, "wild henbit": {"system": "wild henbit", "assay": "Herbicidal spray treatment on henbit under winter field conditions", "format": "in vivo, henbit (Lamium amplexicaule)", "procedure": "FIG. 1 is an image showing results of tests used to determine the herbicidal activity of a spray treatment comprising the use of a 5% solution of 2-undecanone in ethanol. The image was captured approximately 2 hours after the spray-applications of materials to henbit under winter field conditions. Both of the weed groups shown in FIG. 1 are groups of wild henbit. Treatment of the group of henbit plants on the left side of FIG. 1 (control group) consisted of spraying the group with 100 ml of the carrier as a fine mist; the carrier comprised absolute ethanol (without the herbicide). Treatment of the group of henbit plants on the right side of FIG. 1 (treatment group) consisted of spraying the group with 100 ml of the herbicide/carrier mixture (5 wt % of 2-undecanone/100 mL solution) as a fine mist. The image was captured 2 hours after treatment.\nBecause the sprayer produced a very fine mist in each case, and there may have been spray drift (from the wind) during these treatments, evaporation and dissipation of these misty sprays occurred to some degree before and while each spray hit its targeted group of plant material.\nExperiment 2 is similar to Experiment 1, in that it tests the herbicidal activity of an experimental spray treatment on henbit. The herbicidal spray treatments of Experiment 2 comprised the use of a 20% solution of 2-undecanone in ethanol (20 wt % of 2-undecanone/100 mL solution). The experimental results are featured in FIGS. 2A, 2B and 2C, the henbit treatment group receiving the 2-undecanone spray treatment is located on the right side of the image shown in FIG. 2A. The control group was treated with a spray comprising just the carrier (absolute ethanol); the henbit treatment group receiving this carrier-only spray treatment (control group) is located on the left side of the image shown in FIG. 2A. The image was captured 4 days after the spray-applications of these materials to the groups of henbit under winter field conditions. […]"}}}
{"compound": "CCCCCCCCCC(C)=O", "note": "[2-undecanone]", "values": [{"measurement": "subsequent outcome after foliage death", "setting": "Tomato seedlings; >2% in 95% ethanol, fine mist to foliage", "value": "plant death"}, {"measurement": "time to death of the plants' foliage", "setting": "Tomato seedlings; >2% in 95% ethanol, fine mist to foliage, seedlings in 4 to 6 true-leaf stage", "value": "≤ 24", "unit": "h"}, {"measurement": "effect on tomato plants at low concentration", "setting": "Tomato seedlings; less than 1% in 95% ethanol, similar application", "value": "death of foliage followed by re-foliation some days later"}, {"measurement": "time to death of the plants' foliage", "setting": "potato plants; 3-5 inch tall plants", "value": "≤ 24", "unit": "h"}, {"measurement": "subsequent outcome after foliage death", "setting": "potato plants; fine mist to foliage", "value": "plant death"}, {"measurement": "leaf color of treated bean plant", "setting": "bean plants; 2 weeks after treatment", "value": "yellow"}, {"measurement": "onset of change in appearance of treated bean plant", "setting": "bean plants; day of treatment", "value": "started to change its appearance and character shortly after the spray treatment was complete"}, {"measurement": "course of herbicidal toxicity over time", "setting": "wild-type grass; Experiment 6: 5% (wt/vol) in ethanol, up to 24 hours", "value": "increase with time"}, {"measurement": "time to visible differences versus control plot", "setting": "wild-type grass; Experiment 6: 40 ml of 5% (wt/vol) in ethanol", "value": "≤ 30", "unit": "min"}, {"measurement": "appearance of treated grass", "setting": "wild-type grass; Experiment 6: 40 ml of 5% (wt/vol) in ethanol, after 30 minutes", "value": "appeared brown"}, {"measurement": "time to first toxicity effects after spraying", "setting": "wild-type grass; Experiment 7: 5% (wt/vol) in water", "value": "2 to 3", "unit": "h"}, {"measurement": "visual appearance of water-carrier plots compared with ethanol-carrier plots", "setting": "wild-type grass; Experiment 7: 5% (wt/vol) in water, at 24 hours", "value": "similar"}, {"measurement": "changes in color and vitality of treated henbit plants", "setting": "wild henbit; 5% solution in ethanol, 100 ml fine mist, below run-off, approximately 2 hours after treatment", "value": "had lost much of their green color and vitality, and had turned yellow"}, {"measurement": "overall state of treated henbit group versus control", "setting": "wild henbit; 20% (wt/vol) in absolute ethanol, 100 ml spray, 4 days after treatment", "value": "appeared to be dead or dying"}, {"measurement": "effect on stems of treated henbit plants", "setting": "wild henbit; 20% (wt/vol) in absolute ethanol, 100 ml spray, below run-off, 4 days after treatment", "value": "had become significantly weakened and had become flaccid"}]}
